Test results: paper PMC11191095, “QSAR Reveals Decreased Lipophilicity of Polar Residues Determines the Selectivity of Antimicrobial Peptide Activity” (ACS Omega, 2024)
Where a SMILES comes first, the peptide text is derived from it.

Experiments:
[1] = system: E. coli LEC001; assay: microbe, parasite or virus in culture; assay type: cell-based, Escherichia coli
Outline: (§1)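 Peptides 128→2 μg/mL, 2-fold series; inoculum ~5 × 10^5 CFU/mL from overnight culture (OD600 0.01, mixed 1:1). MHB non-cation-adjusted for bacteria, RPMI 1640 + 2% glucose for fungi. 37 °C, 20 h, OD600. MIC50/MIC90 at 50%/90% inhibition; n ≥ 3.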

[2] = system: E. coli NCTC 12923; assay: microbe, parasite or virus in culture; assay type: cell-based, Escherichia coli
Outline: as §1

[3] = system: A. baumannii ATCC 17978; assay: microbe, parasite or virus in culture; assay type: cell-based, Acinetobacter baumannii
Outline: as §1

[4] = system: K. pneumoniae M6; assay: microbe, parasite or virus in culture; assay type: cell-based, Klebsiella pneumoniae
Outline: as §1

[5] = system: S. aureus (MSSA) ATCC 9144; assay: microbe, parasite or virus in culture; assay type: cell-based, Staphylococcus aureus
Outline: as §1

[6] = system: C. auris TDG 1912; assay: microbe, parasite or virus in culture; assay type: cell-based, Candida auris
Outline: as §1

[7] = system: C. albicans NCPF 3281; assay: microbe, parasite or virus in culture; assay type: cell-based
Outline: as §1

[8] = system: C. glabrata NCPF 8018; assay: microbe, parasite or virus in culture; assay type: cell-based
Outline: as §1

[9] = system: C. krusei NCPF 3876; assay: microbe, parasite or virus in culture; assay type: cell-based
Outline: as §1

[10] = system: C. parapsilosis NCPF 3209; assay: microbe, parasite or virus in culture; assay type: cell-based
Outline: as §1

[11] = system: C. tropicalis NCPF 8760; assay: microbe, parasite or virus in culture; assay type: cell-based
Outline: as §1

[12] = system: human erythrocytes; assay: In vitro hemolytic activity; assay type: cell-based; conditions: 1 h
Method: Potential erythrocyte hemolysis was tested by incubating serial dilutions of the AMPs in PBS with freshly collected erythrocytes at a ratio of 1:1 in 96-well polypropylene V-shape plates for 1 h at 37 °C. Control wells were treated with 0.1% Triton-X-100 to ensure complete lysis or PBS-only to represent no lysis. The erythrocytes were collected by centrifugation and the OD550 of the supernatant was measured using a plate reader. The percentage hemolysis was calculated as [drawing 1] 1 where Apeptide is the absorbance value of erythrocytes exposed to a known peptide concentration, Agrowth control is the absorbance of erythrocytes exposed to 0.1% Triton-X-100 and Ablank is the absorbance of erythrocytes exposed to the PBS. The concentrations at which a peptide caused 10% (HC10) and 50% (HC50) hemolysis was determined from the dose response curves.

[13] = system: P. aeruginosa NCTC 13437; assay: microbe, parasite or virus in culture; assay type: cell-based, Pseudomonas aeruginosa; conditions: P. aeruginosa NCTC 13437 (R)
Outline: as §1

[14] = system: P. aeruginosa PAO1; assay: microbe, parasite or virus in culture; assay type: cell-based, Pseudomonas aeruginosa; conditions: P. aeruginosa PAO1 (S); shown in µM
Outline: as §1

[15] = system: A. baumannii AYE; assay: microbe, parasite or virus in culture; assay type: cell-based, Acinetobacter baumannii; conditions: A. baumannii AYE (R); shown in µM
Outline: as §1

[16] = system: K. pneumoniae NCTC 13368; assay: microbe, parasite or virus in culture; assay type: cell-based, Klebsiella pneumoniae; conditions: K. pneumoniae NCTC 13368 (R)
Outline: as §1

[17] = system: S. aureus (MRSA) 1199B; assay: microbe, parasite or virus in culture; assay type: cell-based, Staphylococcus aureus; conditions: S. aureus (MRSA) 1199B (R)
Outline: as §1

[18] = system: S. aureus (MRSA) NCTC 13616; assay: microbe, parasite or virus in culture; assay type: cell-based, Staphylococcus aureus; conditions: S. aureus (MRSA) NCTC 13616 (R)
Outline: as §1

[19] = system: S. aureus (MRSA) USA300; assay: microbe, parasite or virus in culture; assay type: cell-based, Staphylococcus aureus; conditions: S. aureus (MRSA) USA300 (R)
Outline: as §1

[20] = MHB, 37 °C, 20 h, OD600, min. three biological repeats
[21] = C. albicans NCPF 3281, shown in µM
[22] = C. glabrata NCPF 8018, shown in µM
[23] = C. krusei NCPF 3876, shown in µM
[24] = C. parapsilosis NCPF 3209, shown in µM
[25] = C. tropicalis NCPF 8760, shown in µM

CSCC[C@H](NC(=O)[C@H](CCSC)NC(=O)[C@H](CCCCN)NC(=O)CNC(=O)[C@@H](NC(=O)[C@@H](NC(=O)[C@H](CCCCN)NC(=O)[C@H](CC(C)C)NC(=O)CNC(=O)[C@H](Cc1ccccc1)NC(=O)[C@H](CCCCN)NC(=O)[C@H](Cc1ccccc1)NC(=O)[C@H](C)NC(=O)[C@H](CCCCN)NC(=O)CNC(=O)[C@H](CC(C)C)NC(=O)[C@H](CC(C)C)NC(=O)[C@H](CO)NC(=O)CNC(=O)[C@H](CC(C)C)NC(=O)CN)[C@@H](C)O)C(C)C)C(=O)NCC(=O)NCC(=O)N[C@@H](C)C(=O)N1CCC[C@H]1C(=O)N[C@@H](CCCNC(=N)N)C(=O)N[C@@H](CCC(=O)O)C(=O)N[C@@H](CCC(N)=O)C(=O)O [CPF-MW1] (H-GLGSLLGKAFKFGLKTVGKMMGGAPREQ-OH)
21.6 µM: Modal MIC50 ([11]; NCPF 8760, 20 h) | Modal MIC90 ([11]; NCPF 8760, 20 h)
more than 10%: % hemolysis ([12]; red cells of human, 256 μg/mL)
2.7 µM: Modal MIC ([1]; LEC001, 20 h) | Modal MIC ([2]; NCTC 12923, 20 h)
1.4 µM: Modal MIC ([3]; ATCC 17978, 20 h) | Modal MIC ([5]; ATCC 9144, 20 h)
214 µg/mL: HC10 (concentration causing 10% hemolysis) ([12]; human erythrocytes in PBS, 37 °C, OD550, from dose response curves)
10.8 µM: Modal MIC50 ([9]; NCPF 3876, 20 h) | Modal MIC90 ([9]; NCPF 3876, 20 h)
5.4 µM: Modal MIC ([4]; M6, 20 h)
> 43.1 µM: Modal MIC50 ([6]; TDG 1912, 20 h) | Modal MIC90 ([6]; TDG 1912, 20 h) | Modal MIC50 ([7]; NCPF 3281, 20 h) | Modal MIC90 ([7]; NCPF 3281, 20 h) | Modal MIC50 ([8]; NCPF 8018, 20 h) | Modal MIC90 ([8]; NCPF 8018, 20 h) | Modal MIC50 ([10]; NCPF 3209, 20 h) | Modal MIC90 ([10]; NCPF 3209, 20 h)

CC(C)C[C@H](NC(=O)[C@H](CCCCN)NC(=O)[C@H](CO)NC(=O)[C@H](CCCCN)NC(=O)[C@H](Cc1c[nH]c2ccccc12)NC(=O)[C@H](C)NC(=O)[C@H](CCCCN)NC(=O)[C@H](CCCCN)NC(=O)[C@H](CC(C)C)NC(=O)[C@H](Cc1ccccc1)NC(=O)[C@H](CO)NC(=O)CN)C(=O)N[C@@H](C)C(=O)N[C@@H](CCCCN)C(=O)N[C@@H](CCCCN)C(=O)N[C@@H](CC(C)C)C(=O)N[C@@H](CCCNC(=N)N)C(=O)N[C@@H](C)C(=O)N[C@@H](CCCCN)C(=O)NCC(N)=O [PS-PB-20a] (H-GSFLKKAWKSKLAKKLRAKG-NH2)
55.7 µM: Modal MIC [14] | Modal MIC50 [9, 23]
> 128 µg/mL: Modal MIC [13, 20] | Modal MIC ([4]; K. pneumoniae M6 (S), MHB, 37 °C, 20 h, OD600, min. three biological repeats) | Modal MIC [16, 20] | Modal MIC [17, 20] | Modal MIC [18, 20] | Modal MIC [19, 20] | Modal MIC50 ([6]; C. auris TDG 1912, 50% growth inhibition, RPMI 1640 + 2% glucose, 37 °C, 20 h, OD600) | Modal MIC90 ([6]; C. auris TDG 1912, 90% growth inhibition, RPMI 1640 + 2% glucose, 37 °C, 20 h, OD600) | Modal MIC50 ([7]; C. albicans NCPF 3281, 50% growth inhibition, RPMI 1640 + 2% glucose, 37 °C, 20 h) | Modal MIC90 ([7]; C. albicans NCPF 3281, 90% growth inhibition, RPMI 1640 + 2% glucose, 37 °C, 20 h) | Modal MIC50 ([8]; C. glabrata NCPF 8018, 50% growth inhibition, RPMI 1640 + 2% glucose, 37 °C, 20 h) | Modal MIC90 ([8]; C. glabrata NCPF 8018, 90% growth inhibition, RPMI 1640 + 2% glucose, 37 °C, 20 h) | Modal MIC90 ([9]; C. krusei NCPF 3876, 90% growth inhibition, RPMI 1640 + 2% glucose, 37 °C, 20 h) | Modal MIC50 ([10]; C. parapsilosis NCPF 3209, 50% growth inhibition, RPMI 1640 + 2% glucose, 37 °C, 20 h) | Modal MIC90 ([10]; C. parapsilosis NCPF 3209, 90% growth inhibition, RPMI 1640 + 2% glucose, 37 °C, 20 h)
> 55.7 µM: Modal MIC ([13]; shown in µM) | Modal MIC ([4]; K. pneumoniae M6 (S), shown in µM) | Modal MIC ([16]; shown in µM) | Modal MIC ([17]; shown in µM) | Modal MIC ([18]; shown in µM) | Modal MIC ([19]; shown in µM) | Modal MIC50 ([6]; C. auris TDG 1912, shown in µM) | Modal MIC90 ([6]; C. auris TDG 1912, shown in µM) | Modal MIC50 [7, 21] | Modal MIC90 [7, 21] | Modal MIC50 [8, 22] | Modal MIC90 [8, 22] | Modal MIC90 [9, 23] | Modal MIC50 [10, 24] | Modal MIC90 [10, 24]
3.5 µM: Modal MIC ([3]; A. baumannii ATCC 17978 (S), shown in µM) | Modal MIC ([5]; S. aureus (MSSA) ATCC 9144 (S), shown in µM)
13.9 µM: Modal MIC ([2]; E. coli NCTC 12923 (S), shown in µM) | Modal MIC [15]
27.8 µM: Modal MIC ([1]; E. coli LEC001 (R), shown in µM) | Modal MIC50 [11, 25] | Modal MIC90 [11, 25]
